How the values were obtained:
[1] = tested on: white outbred male mice; assay: haloperidol catalepsy method; assay type: in vivo
Description: As one of the indicators for antidepressant antagonism in relation to depriming effects of neuroleptics, neuroleptic-induced catalepsy is used. The maintenance of catalepsy in animals is assessed by their ability to maintain set or unusual poses for a definite time (Morpurgo C. Effects of antiparkinson drugs on phenothiazine induced catatonia reaction//Arch. Int Pharmacodyn., 1962, vol. 137 No 1-2, p. 84-94). Reduction or prevention of catalepsy is one of the factors showing antidepressant activity in studied substances.
The studies have been conducted with white outbred male mice having the weight from 18 to 24 grams. Haloperidol is introduced intraperitoneally in a single dose of 0.5 mg/kg. Phenotropyl has been introduced intraperitoneally in doses of 50, 100 and 200 mg/kg in 15 minutes after the introduction of haloperidol. The catalepsy intensity has been assessed by time (in seconds) of keeping the animals in an uncomfortable pose where their front legs have been put onto a bar having the height of 4 cm, in 60, 120 and 180 minutes after introducing the said medications. It is shown in Table 4 that phenotropyl clearly antagonizes haloperidol-induced catalepsy.

[2] = tested on: patients having depressive illnesses; assay: clinical study, Hamilton rating scale for depressive illness; assay type: in vivo, human
Description: The Hamilton rating scale for primary depressive illness (Hamilton M. Development of a rating scale for primary depressive illness//Br J Soc Clin Psychol. 1967 December;6(4):278-96) is one of the most widely used scales for assessing depression in the clinical practice.
The material for clinical studies has comprised two homogenous groups of patients having depressive illnesses (40 persons) aged 20-42, out of which 20 patients have taken amitriptyline in the daily dose of 75 mg (25 mg three times a day), and 20 patients have taken phenotropyl in the daily dose of 100 mg as a single dose in the morning time. For a comparative study of the medications antidepressant activity the patients have been enlisted for the study according to the following criteria: the informed consent is available, a light or moderate depressive episode (F32.0 ? F32.1 according to MCB-10) is present, the total score under the Hamilton rating scale is not lower than 18, no contraindications to taking amitriptyline and phenotropyl. The patients have been relatively uniformly assigned to the said groups according to meaningful factors, such as sex and age, time for which the condition exists and syndrome characteristics. The condition existence time varied from 1 to 2 years. The therapy efficiency has been assessed on the basis of a degree of reduction of the total score under the Hamilton scale, namely: full effect—reduction by more than 50%; partial reduction—from 25 to 50%; no effect—reduction by less than 25%. The condition of the patients has been assessed during the background studies and at each 7th day of the therapy for the whole 6 weeks of the therapy. In total, seven examinations have been carried out. The comparative data on the general efficiency pf the medications, as given in Table 5, evidence a rather quick reduction of the depressive illness psychopathological symptoms in the process of administering phenotropyl and amitriptyline. However, the antidepressant effect of phenotropyl has been more pronounced on the 7th and 14th days of the therapy. The full reduction has been attained in 25% and 40% of the patients, respectively. […] From the 28th day of the therapy the number of the patients experiencing the maximum effect has not been changed either on the 35th or the 42nd days of the therapy. Out of 20% of the patients experiencing a partial reduction of the depressive symptoms, 15% have been patients with the reduction from 25% to 50%, and 5%—patients with the reduction by less than 25%.

`NC(=O)CN1CC(c2ccccc2)CC1=O` (stereo not drawn) [Phenotropyl, N-carbamoyl-methyl-4-phenyl-2-pyrrolidone] was tested, and the “Catalepsy” value ([1]; haloperidol 0.5 mg/kg + phenotropyl 50 mg/kg intraperitoneally, 60 minutes) was 0.0 ± 0.0 s, the “Catalepsy” value ([1]; haloperidol 0.5 mg/kg + phenotropyl 50 mg/kg intraperitoneally, 120 minutes) was 8.2 ± 3.2 s and the “Catalepsy” value ([1]; haloperidol 0.5 mg/kg + phenotropyl 50 mg/kg intraperitoneally, 180 minutes) was 4.5 ± 2.5 s. For the same compound, the “Catalepsy” value ([1]; haloperidol 0.5 mg/kg + phenotropyl 100 mg/kg intraperitoneally, 60 minutes) was 0.0 ± 0.0 s, the “Catalepsy” value ([1]; haloperidol 0.5 mg/kg + phenotropyl 100 mg/kg intraperitoneally, 120 minutes) was 2.0 ± 1.0 s and the “Catalepsy” value ([1]; haloperidol 0.5 mg/kg + phenotropyl 100 mg/kg intraperitoneally, 180 minutes) was 0.0 ± 0.0 s. The “Catalepsy” value ([1]; haloperidol 0.5 mg/kg + phenotropyl 200 mg/kg intraperitoneally, 60 minutes) was 0.0 ± 0.0 s, the “Catalepsy” value ([1]; haloperidol 0.5 mg/kg + phenotropyl 200 mg/kg intraperitoneally, 120 minutes) was 11.8 ± 2.1 s and the “Catalepsy” value ([1]; haloperidol 0.5 mg/kg + phenotropyl 200 mg/kg intraperitoneally, 180 minutes) was 0.0 ± 0.0 s. The “reduction of catalepsy development level” value ([1]; phenotropyl 50 mg/kg, 120 minutes) was 3.2 times, the “reduction of catalepsy development level” value ([1]; phenotropyl 50 mg/kg, 180 minutes) was 13.2 times and the “reduction of catalepsy development level” value ([1]; phenotropyl 100 mg/kg, 120 minutes) was 14 times. The “development of catalepsy” value ([1]; phenotropyl dose of 100 or 200 mg/kg, 180 minutes) was “fully stopping its development”, the “development of catalepsy” value ([1]; phenotropyl doses of 50 and 100 mg/kg, 60 minutes) was “fully prevents the development of catalepsy” and the “sedative and cholinergic effects” value ([2]; 100 mg daily, 6 weeks of therapy) was “no cases of sedative and cholinergic effects have been recorded”. The “time at which full reduction is attained in 70% and 80% of the patients, compared with amitriptyline” value ([2]; 100 mg daily, 21st and 28th days of the therapy) was “two weeks earlier than for the amitriptyline therapy”, the “patients (%) with reduction of total Hamilton score 25-49” value ([2]; 7th therapy day, 100 mg daily) was 25% and the “patients (%) with reduction of total Hamilton score <25” value ([2]; 7th therapy day, 100 mg daily) was 75%. For the same compound, the “patients (%) with reduction of total Hamilton score ≧50” value ([2]; 7th therapy day, 100 mg daily) was 0%, the “patients (n) with reduction of total Hamilton score 25-49” value ([2]; 7th therapy day, 100 mg daily) was 5 and the “patients (n) with reduction of total Hamilton score <25” value ([2]; 7th therapy day, 100 mg daily) was 15. For the same compound, the “patients (n) with reduction of total Hamilton score ≧50” value ([2]; 7th therapy day, 100 mg daily) was 0, the “patients (%) with reduction of total Hamilton score ≧50” value ([2]; 7th therapy day, 100 mg daily, listed as phenotropyl) was 25% and the “patients (%) with reduction of total Hamilton score 25-49” value ([2]; 14th therapy day, 100 mg daily) was 30%. For the same compound, the “patients (%) with reduction of total Hamilton score <25” value ([2]; 14th therapy day, 100 mg daily) was 30%, the “patients (%) with reduction of total Hamilton score ≧50” value ([2]; 14th therapy day, 100 mg daily) was 40% and the “patients (n) with reduction of total Hamilton score 25-49” value ([2]; 14th therapy day, 100 mg daily) was 6. The “patients (n) with reduction of total Hamilton score <25” value ([2]; 14th therapy day, 100 mg daily) was 6, the “patients (n) with reduction of total Hamilton score ≧50” value ([2]; 14th therapy day, 100 mg daily) was 8 and the “patients (%) with reduction of total Hamilton score 25-49” value ([2]; 21st therapy day, 100 mg daily) was 10%. The “patients (%) with reduction of total Hamilton score <25” value ([2]; 21st therapy day, 100 mg daily) was 20%, the “patients (%) with reduction of total Hamilton score ≧50” value ([2]; 21st therapy day, 100 mg daily) was 70% and the “patients (n) with reduction of total Hamilton score 25-49” value ([2]; 21st therapy day, 100 mg daily) was 2. The “patients (n) with reduction of total Hamilton score <25” value ([2]; 21st therapy day, 100 mg daily) was 4, the “patients (n) with reduction of total Hamilton score ≧50” value ([2]; 21st therapy day, 100 mg daily) was 14 and the “patients (%) with reduction of total Hamilton score 25-49” value ([2]; 28th therapy day, 100 mg daily) was 15%. The “patients (%) with reduction of total Hamilton score <25” value ([2]; 28th therapy day, 100 mg daily) was 5%, the “patients (%) with reduction of total Hamilton score ≧50” value ([2]; 28th therapy day, 100 mg daily) was 80% and the “patients (n) with reduction of total Hamilton score 25-49” value ([2]; 28th therapy day, 100 mg daily) was 3. For the same compound, the “patients (n) with reduction of total Hamilton score <25” value ([2]; 28th therapy day, 100 mg daily) was 1, the “patients (n) with reduction of total Hamilton score ≧50” value ([2]; 28th therapy day, 100 mg daily) was 16 and the “patients (%) with reduction of total Hamilton score 25-49” value ([2]; 35th therapy day, 100 mg daily) was 15%. The “patients (%) with reduction of total Hamilton score <25” value ([2]; 35th therapy day, 100 mg daily) was 5%, the “patients (%) with reduction of total Hamilton score ≧50” value ([2]; 35th therapy day, 100 mg daily) was 80% and the “patients (n) with reduction of total Hamilton score 25-49” value ([2]; 35th therapy day, 100 mg daily) was 3. For the same compound, the “patients (n) with reduction of total Hamilton score <25” value ([2]; 35th therapy day, 100 mg daily) was 1, the “patients (n) with reduction of total Hamilton score ≧50” value ([2]; 35th therapy day, 100 mg daily) was 16 and the “patients (%) with reduction of total Hamilton score 25-49” value ([2]; 42nd therapy day, 100 mg daily) was 15%. For the same compound, the “patients (%) with reduction of total Hamilton score <25” value ([2]; 42nd therapy day, 100 mg daily) was 5%, the “patients (%) with reduction of total Hamilton score ≧50” value ([2]; 42nd therapy day, 100 mg daily) was 80% and the “patients (n) with reduction of total Hamilton score 25-49” value ([2]; 42nd therapy day, 100 mg daily) was 3. For the same compound, the “patients (n) with reduction of total Hamilton score <25” value ([2]; 42nd therapy day, 100 mg daily) was 1, the “patients (n) with reduction of total Hamilton score ≧50” value ([2]; 42nd therapy day, 100 mg daily) was 16 and the “tolerance and withdrawal syndrome” value ([2]; course administration) was “does not induce tolerance and the withdrawal syndrome”.

— patent US20060287383A1, “Substance exhibiting antidepressant property” (priority 2003, published 2006)
